# Tests used:
# [1] = test system: cGAS activity in THP1 cells; assay: Cellular assay: ISRE-Gaussia luciferase reporter THP1 cells transfected with ISD (Interferon Stimulatory DNA); format: cell-based; details: Homo sapiens, THP-1; ISRE-Gaussia luciferase reporter THP1 cells transfected with 2 μg/mL ISD, 16 hours; read-out: THP1-ISD (Inhibition of cGAS activity in THP1 cells, IC50)
# Procedure: A reporter THP1 cell line harboring a gene encoding Gaussia Luciferase under the control of 5 tandem repeats of interferon-stimulated response elements (ISRE) was used to test inhibition of cGAS activity by synthetic compounds in human cells. These cells were plated on 96-well plates at 0.3×10^6/well and incubated with various concentrations of compounds or DMSO for 5 min, followed by transfection of 2 μg/mL of ISD (Interferon Stimulatory DNA, a 45 bp DNA oligo) or mock transfected using lipofectamine 2000 (Life Technology) method, according to manufacturer's instructions. 16 hours later, 15 μL of the media from each well is transferred to a new plate, 50 μL of solution containing 50 mM Hepes-NaOH, 50 mM NaCl, 10 mM EDTA, 1 μM of coeleanterazine was added to each well and luminescence was measured immediately. Fold increase in luminescence compared to mock transfection is plotted against concentrations of each compound, and IC50 is calculated using Graphpad. To evaluate the specificity of a compound, the same procedure was performed except that cells were transfected with 2 μg/mL poly(I:C) or infected with Sendai Virus (SeV) at 50 Unit/mL, which are known to activate the RIG-I-MAVS pathway. A specific inhibitory compound should inhibit interferon induction by DNA but have minimal effect on poly(I:C) or Sendai virus induced interferon reporter gene expression.
# [2] = target: T1, recombinant cGAS (aa147-522) (Homo sapiens, UniProt Q8N884); assay: In vitro assay for inhibition of cGAS activity (ATP consumption, Kinase Glo); format: biochemical; details: 37° C. 20 minutes, read-out: Activity (Inhibition of cGAS enzyme activity in vitro, IC50)
# T1 construct: recombinant cGAS (aa147-522); His6-SUMO (N, cleaved yes); made in house; host or cells: E. coli BL21/pLys
# Procedure: cDNA encoding full-length or amino acids 147-520 of human cGAS is inserted into a modified pET28a vector containing an in-frame His6-SUMO tag. The E. coli strain BL21/pLys harboring the plasmid is induced with 0.5 mM IPTG at 18° C. overnight. His6-SUMO tag was removed by a SUMO proease following purification of the HiS-SUMO-cGAS as described previously (Sun et al, 2013, Science 339, 786).
# A40 μL mixture containing 1.5 ng/μL of recombinant cGAS (aa147-522) and serial dilutions of a test compound or DMSO was added to a 96-well plate and incubated at 37° C. for 20 minutes. At the end of reaction, 20 μL of Kinase Glo (Promega) was added and chemiluminescence measured with a luminometer. Inhibitory effect of a compound is evaluated by plotting percentage of ATP consumption against logarithm of compound concentrations. IC50 value was calculated using Graphpad (Sigma).
# T1 sequence (Q8N884 147-522): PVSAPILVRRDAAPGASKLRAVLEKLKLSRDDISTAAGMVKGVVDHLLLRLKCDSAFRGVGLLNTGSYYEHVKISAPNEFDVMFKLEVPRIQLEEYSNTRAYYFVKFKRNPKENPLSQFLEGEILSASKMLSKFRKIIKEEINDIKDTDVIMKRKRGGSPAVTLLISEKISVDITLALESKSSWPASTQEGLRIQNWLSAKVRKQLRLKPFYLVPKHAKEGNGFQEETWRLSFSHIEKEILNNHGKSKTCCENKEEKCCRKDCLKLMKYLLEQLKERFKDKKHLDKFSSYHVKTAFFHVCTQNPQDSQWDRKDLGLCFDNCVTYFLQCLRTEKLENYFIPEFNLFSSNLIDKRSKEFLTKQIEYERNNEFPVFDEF
SMILES,IC50 [1] [µM],IC50 [2] [µM]
CN1C(=O)S/C(=C\c2cc(O)c(O)cc2Br)C1=O [Ex11],2.5 to 10,≥ 10
COc1cc(/C=c2\sc3nccn3c2=O)c(Br)cc1O [Ex16],2.5 to 10,≤ 0.5
COc1cc(/C=C2\SC(=O)N(C)C2=O)c(Br)cc1NS(=O)(=O)c1ccccn1 [Ex21],2.5 to 10,≥ 10
COc1cc(/C=C2\SC(=O)N(C)C2=O)c(Cl)cc1O [Ex30],≤ 2.5,≤ 0.5
O=C1/C(=C/c2cc(OCc3cnc(NCc4ccccn4)nc3)c(O)cc2Br)Sc2ncccc21 [Ex198],–,≤ 0.5
O=C1/C(=C/c2cc(OCc3cnc(NCc4cccnc4)nc3)c(O)cc2Br)Sc2ncccc21 [Ex199],–,≤ 0.5
COc1cc(/C=C2\SC(=O)N(C)C2=O)c(Br)cc1Oc1nncs1 [Ex201],–,0.5 to 10
COc1cc(/C=C2\SC(=O)N(C)C2=O)c(Br)cc1Oc1ccncc1 [Ex202],–,0.5 to 10
COc1cc(/C=C2\SC(=O)N(C)C2=O)c(Br)cc1OCc1ccncc1 [Ex203],–,0.5 to 10
COc1cc(/C=C2\SC(=O)N(C)C2=O)c(Br)cc1Oc1ccnc2ccccc12 [Ex204],–,0.5 to 10
COc1cc(/C=C2\SC(=O)N(C)C2=O)c(C#N)cc1O [Ex205],–,0.5 to 10
COc1cc(/C=C2\SC(=O)N(C)C2=O)c(Br)cc1Oc1cnc(NCc2ccncc2)s1 [Ex206],–,0.5 to 10
COc1cc(/C=C2\SC(=O)N(C)C2=O)c(Br)cc1Oc1cnc(NCc2cccnc2)s1 [Ex207],–,0.5 to 10
CN1C(=O)S/C(=C\c2cc3c(Cc4cnc(N)nc4)c[nH]c3cc2Br)C1=O [Ex208],–,0.5 to 10
CN1CCC(c2ncc(COc3cc(/C=C4\SC(=O)N(C)C4=O)c(Br)cc3O)cn2)CC1 [Ex209],–,0.5 to 10
CN1C(=O)S/C(=C\c2cc(C(C)(F)F)c(O)cc2Br)C1=O [Ex210],–,0.5 to 10
COc1nc([S+](C)[O-])ncc1COc1cc(/C=C2\SC(=O)N(C)C2=O)c(Br)cc1O (stereo not shown) [Ex212],–,0.5 to 10
CN1C(=O)S/C(=C\c2cc(OCc3cnc([S+](C)[O-])nc3Cl)c(O)cc2Br)C1=O (stereo not shown) [Ex214],–,0.5 to 10
Cc1nc([S+](C)[O-])nc(C)c1COc1cc(/C=C2\SC(=O)N(C)C2=O)c(Br)cc1O (stereo not shown) [Ex215],–,0.5 to 10
CN1C(=O)S/C(=C\c2cc(OCc3cnc(O)nc3)c(O)cc2Br)C1=O [Ex217],–,0.5 to 10
CN1C(=O)S/C(=C\c2cc(OCc3cncnc3O)c(O)cc2Br)C1=O [Ex218],–,≤ 0.5
CN1C(=O)S/C(=C\c2cc(OCc3cnc(S)nc3)c(O)cc2Br)C1=O [Ex219],–,0.5 to 10
COc1nc(S(C)(=O)=O)ncc1COc1cc(/C=C2\SC(=O)N(C)C2=O)c(Br)cc1O [Ex220],–,0.5 to 10
CN1C(=O)S/C(=C\c2cc(OCc3cnc(S(C)(=O)=O)nc3Cl)c(O)cc2Br)C1=O [Ex221],–,0.5 to 10

SMILES,IC50 [1] [µM],IC50 [2] [µM]
COc1nc(N)ncc1COc1cc(/C=C2\SC(=O)N(C)C2=O)c(Br)cc1O [Ex222],–,0.5 to 10
Cc1nc(N)nc(C)c1COc1cc(/C=C2\SC(=O)N(C)C2=O)c(Br)cc1O [Ex223],–,0.5 to 10
CN1C(=O)S/C(=C\c2cc(OCc3cncc(NC(=O)c4cccnc4)c3)c(O)cc2Br)C1=O [Ex224],–,0.5 to 10
CN1C(=O)S/C(=C\c2cc(OCc3cncc(NC(=O)c4ccncc4)c3)c(O)cc2Br)C1=O [Ex225],–,≥ 10
CC(C)C(=O)Nc1cncc(COc2cc(/C=C3\SC(=O)N(C)C3=O)c(Br)cc2O)c1 [Ex226],–,≥ 10
CN1C(=O)S/C(=C\c2cc(OCc3cncc(NCc4ccccn4)c3)c(O)cc2Br)C1=O [Ex227],–,≥ 10
CN1C(=O)S/C(=C\c2cc(OCc3cncc(NCc4ccncc4)c3)c(O)cc2Br)C1=O [Ex228],–,≥ 10
CC(C)CNc1cncc(COc2cc(/C=C3\SC(=O)N(C)C3=O)c(Br)cc2O)c1 [Ex229],–,≥ 10
CN1C(=O)S/C(=C\c2cc(Oc3ccncc3)c(O)cc2Br)C1=O [Ex230],–,≥ 10
CN1C(=O)S/C(=C\c2cc(Oc3ccc(=O)[nH]c3)c(O)cc2Br)C1=O [Ex231],–,0.5 to 10
CN1C(=O)S/C(=C\c2cc(OCc3cn(-c4ccccc4)nn3)c(O)cc2Br)C1=O [Ex232],–,≥ 10
Cc1nc(N)ncc1COc1cc(/C=C2\Sc3ncccc3C2=O)c(Br)c(F)c1O [ExA8],–,≤ 0.5
CSc1nc([S+](C)[O-])ncc1COc1cc(/C=C2\Sc3ncccc3C2=O)c(Br)c(F)c1O (stereo not shown) [ExA16],–,≤ 0.5
CN1C(=O)S/C(=C\c2cc(OCC(F)(F)c3cnc(N)nc3)c(O)c(F)c2Br)C1=O [ExA20],–,0.5 to 10
CN1C(=O)S/C(=C\c2cc(OCC(=O)Nc3nncs3)c(O)c(F)c2Br)C1=O [ExB1],–,0.5 to 10
CN1C(=O)S/C(=C\c2cc(Oc3cccc4ncccc34)c(O)cc2Br)C1=O [ExB5],–,≥ 10
CN1C(=O)S/C(=C\c2cc(OCC3(c4cnc(N)nc4)CC3)c(O)c(F)c2Br)C1=O [ExB6],–,0.5 to 10
CC(=O)c1cc(N)ccc1Oc1cc(/C=C2\SC(=O)N(C)C2=O)c(Br)c(F)c1O [ExB7],–,≥ 10
CC(Cc1cnc(N)nc1)Oc1cc(/C=C2\SC(=O)N(C)C2=O)c(Br)c(F)c1O (stereo not shown) [ExB9],–,0.5 to 10
CC(Oc1cc(/C=C2\SC(=O)N(C)C2=O)c(Br)c(F)c1Oc1cnc(N)s1)c1cnc(N)nc1 (stereo not shown) [ExB10],–,0.5 to 10
COc1cccc(Oc2cc(/C=C3\SC(=O)N(C)C3=O)c(Br)cc2O)c1N [ExB11],–,≥ 10
CN1C(=O)S/C(=C\c2cc(Oc3cccc(O)c3N)c(O)cc2Br)C1=O [ExB12],–,≥ 10
Cc1nc2c(Oc3cc(/C=C4\SC(=O)N(C)C4=O)c(Br)cc3O)cccc2o1 [ExB13],–,0.5 to 10
CN1C(=O)S/C(=C\c2cc3c(-c4ccc(N)cc4)c[nH]c3cc2Br)C1=O [ExB14],–,0.5 to 10

SMILES,IC50 [1] [µM],IC50 [2] [µM]
CSc1ccc(CCc2cc(/C=C3\SC(=O)N(C)C3=O)c(Br)cc2O)cc1 [ExB15],–,0.5 to 10
CN1C(=O)S/C(=C\c2cc(C(F)(F)F)c(O)cc2Br)C1=O [ExB16],–,≤ 0.5
O=C1/C(=C/c2cc(C(F)(F)F)c(O)cc2Br)Sc2ncccc21 [ExB17],–,≤ 0.5
CC(C)c1cc(/C=C2\SC(=O)N(C)C2=O)c(Br)cc1O [ExB18],–,≥ 10
CC(C)c1cc(/C=C2\Sc3ncccc3C2=O)c(Br)cc1O [ExB19],–,≥ 10
CN1C(=O)S/C(=C\c2cc(CC(F)(F)F)c(O)cc2Br)C1=O [ExB20],–,0.5 to 10
C/N=C1/S/C(=C\c2cc(OC)c(O)cc2Br)C(=O)N1C [ExB22],–,≥ 10
CC/N=C1/S/C(=C\c2cc(OC)c(O)cc2Br)C(=O)N1C [ExB23],–,≥ 10
CCC/N=C1/S/C(=C\c2cc(OC)c(O)cc2Br)C(=O)N1C [ExB24],–,≥ 10
CN1C(=O)S/C(=C\c2cc(Oc3cccc4cnccc34)c(O)cc2Br)C1=O [ExB25],–,≥ 10
CN1C(=O)S/C(=C\c2cc(Oc3ccc(-c4ccccn4)cc3)c(O)cc2Br)C1=O [ExB26],–,≥ 10
CN1C(=O)S/C(=C\c2cc(Oc3cccc4c3COCC4)c(O)cc2Br)C1=O [ExB27],–,≥ 10
CN1C(=O)S/C(=C\c2cc(Oc3ccc(-c4cccnc4)cc3)c(O)cc2Br)C1=O [ExB28],–,≥ 10
[2H]C(C)(Oc1cc(/C=C2\SC(=O)N(C)C2=O)c(Br)c(F)c1O)c1cnc(N)nc1 (stereo not shown) [ExB29],–,≤ 0.5
CN1C(=O)S/C(=C\c2cc(Oc3cnc(N)s3)c(O)c(F)c2Br)C1=O [ExB30],–,0.5 to 10
CCC(Oc1cc(/C=C2\SC(=O)N(C)C2=O)c(Br)c(F)c1O)c1cnc(Cl)nc1 (stereo not shown) [ExB31],–,0.5 to 10
CN1C(=O)S/C(=C\c2cc(OCCc3cnc(N)nc3N)c(O)c(F)c2Br)C1=O [ExB32],–,≤ 0.5
CN1C(=O)S/C(=C\c2cc(OC(F)(F)F)c(Oc3cnc(N)s3)cc2Br)C1=O [ExB33],–,≥ 10
CC(=O)c1cc(/C=C2\SC(=O)N(C)C2=O)c(Br)cc1Oc1cnc(N)s1 [ExB34],–,≥ 10
CSc1ncncc1C(=O)C(C)Oc1cc(/C=C2\SC(=O)N(C)C2=O)c(Br)c(F)c1O (stereo not shown) [ExB36],–,≥ 10
CC(Oc1cc(/C=C2\SC(=O)N(C)C2=O)c(Br)c(F)c1O)C(O)c1cncnc1N (stereo not shown) [ExB37],–,≤ 0.5
CN1C(=O)S/C(=C\c2cc(CCc3ccc([S+](C)[O-])cc3)c(O)cc2Br)C1=O (stereo not shown) [ExB38],–,≥ 10
CN1C(=O)S/C(=C\c2cc(CCc3cnc(N)nc3)c(O)cc2Br)C1=O [ExB41],–,0.5 to 10
Nc1ncc(/C=C/c2cc(/C=C3\Sc4ncccc4C3=O)c(Br)cc2O)cn1 [ExB42],–,≤ 0.5

# — patent US12065416B2, “cGAS antagonist compounds” (IMMUNESENSOR THERAPEUTICS, INC., priority 2016, dated 2024)
